Results reported in patent publication US11851681B2, “Cell preparation method” (KYOTO PREFECTURAL PUBLIC UNIVERSITY CORPORATION, priority 2015, dated 2023).
Entries after “also recorded” stand apart in the source; their conditions may differ. Like-named read-outs stand apart in the source and are kept apart here.

How the values were obtained:
[1] = test system: human dermal fibroblasts; HDFs; assay: Alizarin Red S staining (staining figure), fibroblast to osteoblast, Example 1; type: cell-based; conditions: each compound 2 μM in calcification induction medium; day 24; FIG. 1
Description: It was washed 3 times with sterile distilled water. […] The well after staining was washed with sterile distilled water and photographed.
The concentrations of the compounds are as follows: • D4476: 2 μM • ALK5 inhibitor II: 2 μM • SB431542: 2 μM.

[2] = test system: human dermal fibroblasts; HDFs; assay: Real-time RT-PCR of Osteocalcin and Alkaline Phosphatase, Example 3; type: cell-based; conditions: each compound 2 μM in calcification induction medium; day 24; FIG. 3
Description: The concentrations of the compounds are as follows: • D4476: 2 μM • SB431542: 2 μM • ALK5 inhibitor II: 2 μM.

[3] = test system: human adipose derived stem cells; ADSC; conditions: calcification induction medium added with ALK5 inhibitor II; day 19; FIG. 5
Description: (§1) The calcification induction medium is 10% FBS DMEM added with 50 μg/ml ascorbic acid, 10 mM β-glycerophosphate and 100 nM Dexamethasone. The culture medium was exchanged with a fresh one every 3-4 days, and culturing was performed until day 19.
(§2) On day 19, the culture medium was removed from each well by suction, washed with PBS(−), and fixed with 10% formalin. It was washed 3 times with sterile distilled water. Thereafter, Alizarin Red S staining solution was added, and the mixture was incubated at room temperature for 15 min.

[4] = test system: human dermal fibroblasts; HDFs; conditions: calcification induction medium added with ALK5 inhibitor II; day 19; FIG. 5
Description: as §1, §2

[5] = test system: human dermal fibroblasts; HDFs; assay: Oil Red O staining, fibroblast to brown adipocyte, Example 12; type: cell-based; conditions: compound 2 μM in addition to T3 1 nM and Rosiglitazone 1 μM, adipocyte induction medium; day 14; FIG. 12
Description: (§3) The concentrations of the additives are as follows: • T3: 1 nM • Rosiglitazone: 1 μM • D4476: 2 μM • Pifithrin alpha [p53 inhibitor]: 5 μM • SB431542: 2 μM • ALK5 Inhibitor II: 2 μM.
Then, the cells were washed with sterile distilled water and photographed with a phase contrast microscope at ×100 magnification.

[6] = test system: human dermal fibroblasts; HDFs; assay: Real-time RT-PCR of CIDEA, Example 13; type: cell-based; conditions: compound 2 μM in addition to T3 1 nM and Rosiglitazone 1 μM, adipocyte induction medium; day 14; FIG. 13
Description: as §3

[7] = test system: human dermal fibroblasts; HDFs; assay: Real-time RT-PCR of AdipoQ, Example 14; type: cell-based; conditions: D4476, SB431542, ALK5 Inhibitor II 2 μM, PD0325901 1 μM, in addition to T3 and Rosiglitazone; day 14; FIG. 14
Description: The concentrations of the additives are as follows: • T3: 1 nM • Rosiglitazone: 1 μM • D4476: 2 μM. • Pifithrin alpha [p53 inhibitor]: 5 μM • PD0325901: 1 μM • SB431542: 2 μM • ALK5 Inhibitor II: 2 μM.

HDF45, HDF69, HDF22 = conditions: 4 μM in calcification induction medium; day 10 (ALP), day 15 (Alizarin Red S); FIG. 37, 38
Source text: (§4) It was washed 3 times with sterile distilled water.
as §4

[8] = test system: Human normal skin-derived fibroblasts (HDFs); conditions: FIG. 42
Description: Human normal skin-derived fibroblasts (HDFs) were suspended in a general medium (DMEM added with 10% FBS). […] An adipocyte induction medium was added to group 2 at 1 mL/well. An adipocyte induction medium added with ALK5 inhibitor II at a concentration of 4 μM was added to groups 3-8 at 1 mL/well.
The adipocyte induction medium is DMEM added with 1 nM T3, 1 μM Rosiglitazone, 0.5 mM 3-isobutyl-1-methylxanthine (IBMX), 0.5 μM dexamethasone, 1 μg/mL Insulin and 10% FBS. Once every 2 days, the culture medium was exchanged with a fresh one. In groups 3-7, as described in the Figure, the cells were cultured in an adipocyte induction medium added with ALK5 inhibitor II only in the period of days 0-2, 0-4, 0-6, 0-8, 0-10, and thereafter cultured in an adipocyte induction medium free of ALK5 inhibitor II. On day 14, the culture medium was removed by suction from each well, and washed with PBS(−). After fixing with 4% para-formaldehyde, the well was washed with PBS (−), Permanent wave Buffer (0.2% Triton-X-added PBS) was added and the well was incubated for 15 min. After washing 3 times with PBS(−), Blocking One was added, and the mixture was incubated at room temperature for 60 min. Anti-UCP-1 antibody (RD MAB6158) was added and the mixture was reacted for 2 hrs at room temperature, and washed 3 times with Wash buffer. CF488-conjugated anti-mouse Ig antibody (Biotum 20014) was added and the mixture was reacted for 2 hrs at room temperature, and washed 3 times with PBS(−). After nuclear staining with SlowFade Gold antifade reagent with DAPI manufactured by Lifetechnology, the cells were photographed with a fluorescence microscope at ×100 magnification.

[9] = test system: Human normal skin-derived fibroblasts (HDFs); assay: Immunostaining of UCP1, four inhibitors, Example 40; type: cell-based; conditions: LY2157299 8 μM, SB431542 4 μM, D4476 4 μM, Day 1 to Day 8, day 14, FIG. 44
Description: Human normal skin-derived fibroblasts (HDFs) were suspended in a general medium (DMEM added with 10% FBS). […] The adipocyte induction medium is DMEM added with 1 nM T3, 1 μM Rosiglitazone, 0.5 mM 3-isobutyl-1-methylxanthine (IBMX), 0.5 μM dexamethasone, 1 μg/mL Insulin and 10% FBS. Once every 2 days, the culture medium was exchanged with a fresh one, and culturing was performed from Day 1 to Day 8. Thereafter, from Day 9 to Day 14, the cells were cultured in an adipocyte induction medium free of ALK5 inhibitor II, LY2157299, SB431542, D4476. On day 14, the culture medium was removed by suction from each well, and washed with PBS(−). After fixing with 4% para-formaldehyde, the well was washed with PBS (−), Permanent wave Buffer (0.2% Triton-X addition PBS) was added and the well was incubated for 15 min. After washing 3 times with PBS(−), Blocking One was added, and the mixture was incubated at room temperature for 60 min. Anti-UCP-1 antibody (RD MAB6158) was added and the mixture was reacted for 2 hrs at room temperature, and washed 3 times with Wash buffer. CF488-conjugated anti-mouse Ig antibody (Biotum 20014) was added and the mixture was reacted for 2 hrs at room temperature, and washed 3 times with PBS(−). After nuclear staining with SlowFade Gold antifade reagent with DAPI manufactured by Lifetechnology, the cells were photographed with a fluorescence microscope at ×100 magnification.

[10] = test system: Human Epidermal Keratinocyte; NHEK (AD); assay: Real-time RT-PCR of UCP1 and CIDEA, keratinocyte to brown adipocyte, Example 43; type: cell-based; conditions: K-adipocyte induction medium; ALK5 inhibitor II 4 μM or LY2157299 8 μM, Day 1 to Day 8; day 14; FIG. 47
Description: Normal human epidermal keratinocyte (Human Epidermal Keratinocyte; NHEK (AD)) were suspended in a serum-free liquid medium for normal human epidermal keratinocyte proliferation (HuMedia-KG2; manufactured by Kurabo).
The K-adipocyte induction medium is HuMedia-KG2 added with 1 nM T3, 1 μM Rosiglitazone, 0.5 mM 3-isobutyl-1-methylxanthine (IBMX), 0.5 μM dexamethasone, and 1 μg/mL Insulin.
Once every 2 days, the culture medium was exchanged with a fresh one, and culturing was performed from Day 1 to Day 8. Thereafter, from Day 9 to Day 14, the cells were cultured in a medium free of ALK5 inhibitor II or LY2157299. On day 14, the culture medium was removed by suction from each well, washed with PBS(−) and total RNA was extracted from the cells by using RNA easy Mini Kit manufactured by Qiagen. cDNA was synthesized from the RNA by using Rever Tra Ace qPCR RT Master Mix. This cDNA was admixed with Real-time PCR Master Mix, primers specific to UCP-1 gene, CIDEA gene or β actin gene and Taqman probe. qRT-PCR was performed using AB7300 Real-time PCR system. The mRNA level of UCP1 gene and CIDEA gene was quantified as a ratio to β-actin gene mRNA level, and calculated with the value of fibroblast cultured in the general medium as 1.

[11] = test system: human dermal fibroblasts; HDFs; assay: Bodipy staining in WA medium, four inhibitors, Example 48; type: cell-based; conditions: day 12, FIG. 52
[12] = test system: human dermal fibroblasts; HDFs; conditions: cartilage induction medium added with 2 M ALK5 inhibitor II; day 18; FIG. 9
Description: Once every 2 days, the culture medium was exchanged with a fresh one, and culturing was performed until day 18. The cells were washed twice with PBS(−), once with 3% acetic acid solution, an alcian blue staining solution (PH2.5) (Nacalai Tesque) was added and the cells were stained for 1 hr at room temperature. The cells were washed 3 times with PBS(−) and observed under a microscope.

[13] = test system: human dermal fibroblasts; HDFs; conditions: 4 μM in MDI medium; day 14; FIG. 24
Description: MDI medium (3-isobutyl-1-methylxanthine/dexamethasone/insulin-containing medium) is 10% FBS DMEM added with 0.5 mM 3-isobutyl-1-methylxanthine (IBMX), 0.5 μM dexamethasone, and 1 μg/mL Insulin. The culture medium was exchanged with a fresh one every 3-4 days, and culturing was performed until day 14.
On day 14, the culture medium was removed from each well by suction, washed with PBS, and total RNA was extracted from the cell with ISOGEN II. cDNA was synthesized from the RNA by using Rever Tra Ace qPCR RT Master Mix. This cDNA was admixed with Real-time PCR Master Mix, and primers specific to AdipoQ, FABP4 or β-actin gene, and Taqman probe. qRT-PCR was performed using AB7300 Real-time PCR system. The mRNA level of AdipoQ and FABP4 gene was quantified as a ratio to β-actin gene mRNA level, and calculated with the value of fibroblast cultured in MDI medium as 1.

Cc1cccc(-c2n[nH]cc2-c2ccc3ncccc3n2)n1 [ALK5 inhibitor II, 2-(3-(6-Methylpyridin-2-yl)-1H-pyrazol-4-yl)-1,5-naphthyridine]
conversion of human fibroblast to osteoblast, Alizarin Red S staining (staining figure) [1]: converted to osteoblast having calcified is bone matrix production ability; also recorded: most efficiently converts fibroblast to osteoblast
conversion of human fibroblast to osteoblast, Osteocalcin and Alkaline Phosphatase mRNA [2]: converted to osteoblast expressing osteocalcin and alkaline phosphatase gene; also recorded: most efficiently converts fibroblast to osteoblast
conversion to osteoblast, Alizarin Red S staining and OD550, fat-derived mesenchymal stem cell [3]: converted to osteoblast having calcified bone matrix production ability
conversion to osteoblast, Alizarin Red S staining and OD550, human fibroblast [4]: converted to osteoblast having calcified bone matrix production ability
conversion of fibroblast to brown adipocyte, Oil Red O staining [5]: converted fibroblast to brown adipocyte
conversion of fibroblast to brown adipocytes, CIDEA mRNA [6]: converted fibroblast to brown adipocytes expressing mRNA of CIDEA gene
conversion of fibroblast to brown adipocytes, AdipoQ mRNA [7]: converted fibroblast to brown adipocytes expressing mRNA of AdipoQ gene
conversion of fibroblasts from different individuals to osteoblasts, ALP and Alizarin Red S staining (HDF45, HDF69, HDF22): are converted to osteoblasts
conversion of fibroblast to brown adipocyte, UCP1 protein, exposure 0-8 days ([8]; 4 μM for 0-8 days, thereafter medium free of ALK5 inhibitor II): can be more strongly induced
staining with anti-UCP1 antibody, groups 3-8 ([8]; 4 μM in adipocyte induction medium, days 0-2 to 0-10 or throughout, day 14): many cells were stained with anti-UCP1 antibody
conversion of fibroblast to brown adipocyte, UCP1 protein ([8]; 4 μM in adipocyte induction medium, day 14): converted fibroblast to brown adipocyte is highly expressing UCP1 protein
staining with anti-UCP1 antibody, group 6 ([8]; 4 μM only in days 0-8, day 14): the density of the cells stained with anti-UCP1 antibody was the highest
conversion of fibroblast to brown adipocyte, UCP1 protein ([9]; ALK5 inhibitor II 4 μM): converted fibroblast to brown adipocyte expressing UCP1 protein; also recorded: most strongly induced
staining with anti-UCP1 antibody ([9]; groups 3-6: ALK5 inhibitor II 4 μM): many cells were stained with anti-UCP1 antibody; also recorded: the density of the cells stained with anti-UCP1 antibody was the highest
conversion of epidermal keratinocyte to brown adipocyte, UCP1 and CIDEA mRNA [10]: converted normal human epidermal keratinocyte to brown adipocyte expressing UCP1 gene and CIDEA gene
lipid droplets stained with Bodipy, inhibitor alone ([11]; WA medium added with 16 μM compound alone): only a few cells contained lipid droplets stained with Bodipy
lipid droplets stained with Bodipy / conversion to white adipocyte, inhibitor and Rosiglitazone ([11]; WA medium added with 16 μM compound and 1 μM Rosiglitazone): many cells were stained; also recorded: most strongly induced conversion of fibroblast to white adipocyte
conversion of fibroblast to cartilage, alcian blue staining [12]: can convert human normal skin-derived fibroblast to cartilage that produces cartilage matrix stained blue
conversion of fibroblast to white adipocyte, AdipoQ and FABP4 mRNA [13]: converted human skin-derived fibroblast to white adipocyte expressing AdipoQ gene and FABP4 gene
